Source: the NIST ThermoML archive (doi:10.1016/j.jct.2009.03.005)

Test: wn = mass fraction of the nth substance listed
Conditions: 298.15 K, 101 kPa, Liquid; for viscosity: Capillary tube (Ostwald / Ubbelohde) method; for mass density: Pycnometric method

C[S+](C)[O-] [dimethyl sulfoxide] + CC#N
Conditions | mass density [kg/m3] | viscosity [mPa·s]
w1 = 0.2 | 829.3 | 0.4196
w1 = 0.4 | 883.3 | 0.5249
w1 = 0.6 | 945.6 | 0.7147
